These results are taken from patent EP4818171A1 (Apeiron Therapeutics (Hong Kong) Ltd., priority 2024, dated 2025).

Read-outs that look alike come from different tables or passages of the source.

Experiment [1] has as its system LU99 MTAP overexpressing cells. Briefly: Inhibitory activity on proliferation of LU99 MTAP overexpressing cells (Cell-Titer Glo). Format: cell-based. Conditions: 6 d incubation.
Description: Materials and cells: LU99 MTAP overexpressing cell line was purchased from Kyinno Biotechnology (China); cell culture medium and fetal bovine serum were purchased from Thermo Fisher Scientific (USA); 384-well plates were purchased from PerkinElmer (USA); Cell-Titer Glo kits were purchased from Promega (USA).
Cell culture: LU99 MTAP overexpressing cells were cultured with medium containing 10% fetal bovine serum at 37°C in 5% carbon dioxide. Only cells in the logarithmic growth phase could be used for the test.
Test of inhibitory activity on cell proliferation: The Cell-Titer Glo kit was used to test the proliferation inhibitory activity of the compounds on LU99 MTAP overexpressing cells. The cell concentration was adjusted, rendering that cells were inoculated into a 384-well plate at 40 µL per well and incubated overnight at 37°C and 5% carbon dioxide. 40 nL of the compound was added to each well to reach a final concentration of 0-10,000 nM (starting concentration 10,000 nM, 2.5-fold dilution, 10 points), and the cell plate with 0.2% DMSO content was incubated at 37°C and 5% carbon dioxide for 6 d. 40 µL of Cell-Titer Glo reagent was added to test cell viability.
The test system of experiment [2] is LU99 MTAP(-/-)deleted cells. Briefly: Inhibitory activity on proliferation of LU99 MTAP(-/-)deleted cells (Cell-Titer Glo).
Description: Materials and cells: LU99 MTAP deleted cell line was purchased from Kyinno Biotechnology (China); cell culture medium and fetal bovine serum were purchased from Thermo Fisher Scientific (USA); 384-well plates were purchased from PerkinElmer (USA); Cell-Titer Glo kits were purchased from Promega (USA). Cell culture: LU99 MTAP(-/-)deleted cells were cultured with medium containing 10% fetal bovine serum at 37°C in 5% carbon dioxide. Only cells in the logarithmic growth phase could be used for the test.
Test of inhibitory activity on cell proliferation: The Cell-Titer Glo kit was used to test the proliferation inhibitory activity of the compounds on LU99 MTAP(-/-)deleted cells. The cell concentration was adjusted, rendering that cells were inoculated into a 384-well plate at 40 µL per well and incubated overnight at 37°C and 5% carbon dioxide. […] 40 µL of Cell-Titer Glo reagent was added to test cell viability.
In the next experiment the test system is HCT-116 wild-type cells. In words: Inhibitory activity on proliferation of HCT-116 wild-type cells (Cell-Titer Glo). Format: cell-based. The note with it: 8 d incubation.
In experiment [3] the test system is HCT-116 MTAP(-/-)deleted cells. Briefly: Inhibitory activity on proliferation of HCT-116 MTAP(-/-)deleted cells (Cell-Titer Glo). Conditions: read-out: IC50 (nM) HCT-116 MTAP(-/-)deleted.
Description: Only cells in the logarithmic growth phase could be used for the test. […] The cell concentration was adjusted, rendering that cells were inoculated into a 384-well plate at 40 µL per well and incubated overnight at 37°C and 5% carbon dioxide. 40 nL of the compound was added to each well to reach a final concentration of 0-10,000 nM (starting concentration 10,000 nM, 3-fold dilution, 10 points), and the cell plate with 0.1% DMSO content was incubated at 37°C and 5% carbon dioxide for 8 d. 40 µL of Cell-Titer Glo reagent was added to test cell viability.
[4] abbreviates: read-out: IC50 (nM) Lu99 MTAP(-/-)Deleted, LU99 MTAP(-/-)deleted cells, 6 d incubation, Cell-Titer Glo.
The mark [5] stands for this setting: Homo sapiens, Lu-99, 144 h, read-out: IC50 (nM) Lu99 MTAP(-/-)Deleted, LU99 MTAP(-/-)deleted cells, 6 d incubation, Cell-Titer Glo.

Description for HCT-116 wild-type cells: Cell culture: HCT-116 wild-type cells were cultured with a RPMI-1640 medium containing 10% fetal bovine serum+1% penicillin-streptomycin at 37°C in 5% carbon dioxide. Only cells in the logarithmic growth phase could be used for the test.
Test of cell proliferation activity: Cell-Titer Glo kit was used to test the proliferation inhibitory activity of the compound on HCT-116 wild-type cells. The cell concentration was adjusted, rendering that cells were inoculated into a 384-well plate at 40 µL per well and incubated overnight at 37°C and 5% carbon dioxide. 40 nL of the compound was added to each well to reach a final concentration of 0-10,000 nM (starting concentration 10,000 nM, 2-fold dilution, 10 points), and the cell plate with 0.1% DMSO content was incubated at 37°C and 5% carbon dioxide for 8 d. 40 µL of Cell-Titer Glo reagent was added to test cell viability.

As to “4-amino-N-methyl-N-(7'-(trifluoromethyl)spiro[cyclobutane-1,1'-isochroman]-4'-yl)imidazo[1,5-a]quinoxaline-8-carboxamide [Example 1]”, the IC50 in experiment [1] was 652 nM; in experiment [2] (setting [4]), 13.2 nM; in the experiment on HCT-116 wild-type cells, 959 nM; in experiment [3] (HCT-116 MTAP(-/-)deleted cells, 8 d incubation, Cell-Titer Glo) it was 10 nM.
Regarding `CN(C(=O)c1ccc2nc(N)c3cncn3c2c1)[C@H]1COC2(CCC2)c2cc(C(F)(F)F)ccc21` (stereo in doubt) [Example 4, (R)-4-amino-N-methyl-N-(7'-(trifluoromethyl)spiro[cyclobutane-1,1'-isochroman]-4'-yl)imidazo[1,5-a]quinoxaline-8-carboxamide], the IC50 came to 742 nM in experiment [1] and 1100 nM in experiment [2] (setting [4]).
`CN(C(=O)c1ccc2nc(N)c3cncn3c2c1)[C@H]1COC2(CCC2)c2cc(C(F)(F)F)ccc21` [Example 3, (R)-4-amino-N-methyl-N-(7'-(trifluoromethyl)spiro[cyclobutane-1,1'-isochroman]-4'-yl)imidazo[1,5-a]quinoxaline-8-carboxamide]: the IC50 in experiment [1] (Homo sapiens, Lu-99, 144 h) is 624 nM; in experiment [2] (setting [4]), 8.3 nM; in the experiment with HCT-116 wild-type cells (Homo sapiens, HCT-116, 192 h) it was 636 nM; in experiment [3] (Homo sapiens, HCT-116, 192 h) it was 5.1 nM.
For `CN(C(=O)c1ccc2nc(N)c3cncn3c2c1)[C@@H]1COC2(CCC2)c2nc(N3CCOCC3)ccc21` [Example 5, (S)-4-amino-N-methyl-N-(2'-morpholinyl-5',6'-dihydrospiro[cyclobutane-1,8'-pyrano[3,4-b]pyridine]-5'-yl)imidazo[1,5-a]quinoxaline-8-carboxamide], the IC50 amounted to 2360 nM in experiment [1] (Homo sapiens, Lu-99, 144 h) and 961 nM in experiment [2] (setting [5]).
For `CN(C(=O)c1ccc2nc(N)c3cncn3c2c1)C1COC2(CCC2)c2cc(C(F)(F)F)ccc21` (stereo not drawn) [Example 7, 4-Amino-N-methyl-N-(7'-(trifluoromethyl)spiro[cyclobutane-1,1'-isochroman]-4'-yl)imidazo[1,5-a]quinoxaline-8-carboxamide], the IC50 in experiment [1] (Homo sapiens, Lu-99, 144 h) was found to be 624 nM; in experiment [2] (setting [5]), 8.3 nM; in the experiment with HCT-116 wild-type cells (Homo sapiens, HCT-116, 192 h), 636 nM; in experiment [3] (Homo sapiens, HCT-116, 192 h) it was 5.1 nM.
As for `CN(C(=O)c1ccc2nc(N)c3cncn3c2c1)C1COC2(CC2)c2cc(C(F)(F)F)ccc21` (stereo not drawn) [Example 8, 4-Amino-N-methyl-N-(7'-(trifluoromethyl)spiro[cyclopropane-1,1'-isochroman]-4'-yl)imidazo[1,5-a]quinoxaline-8-carboxamide], the IC50 in experiment [1] (Homo sapiens, Lu-99, 144 h) is 2310 nM; in experiment [2] (setting [5]) it was 13.4 nM; in the experiment with HCT-116 wild-type cells (Homo sapiens, HCT-116, 192 h), 3930 nM; in experiment [3] (Homo sapiens, HCT-116, 192 h) it was 9 nM.
Taken in the same sequence, the figures for `CN(C(=O)c1ccc2nc(N)c3cncn3c2c1)C1COC2(CCCC2)c2cc(C(F)(F)F)ccc21` (stereo not drawn) [Example 9, 4-Amino-N-methyl-N-(7'-(trifluoromethyl)spiro[cyclopentane-1,1'-isochroman]-4'-yl)imidazo[1,5-a]quinoxaline-8-carboxamide] were 1980 nM, 10.9 nM, 2220 nM and 6.5 nM.
Taken in the same sequence, the figures for `CN(C(=O)c1ccc2nc(N)c3cncn3c2c1)C1COC2(CCOCC2)c2cc(C(F)(F)F)ccc21` (stereo not drawn) [Example 12, 4-Amino-N-methyl-N-(7'-(trifluoromethyl)-2',3',5',6'-tetrahydrospiro[isochroman-1,4'-pyran]-4-yl)imidazo[1,5-a]quinoxaline-8-carboxamide] were 1640 nM, 8.8 nM, 1730 nM and 7.64 nM.
In the same order, the values of `CN(C(=O)c1cc2c(cc1F)nc(N)c1cncn12)C1COC2(CCC2)c2cc(C(F)(F)F)ccc21` (stereo not drawn) [Example 13, 4-Amino-7-fluoro-N-methyl-N-(7'-(trifluoromethyl)spiro[cyclobutane-1,1'-isochroman]-4'-yl)imidazo[1,5-a]quinoxaline-8-carboxamide] are 773 nM, 7.8 nM, 597 nM and 5.3 nM.
Take `CN(C(=O)c1cc2c(cc1F)nc(N)c1cncn12)[C@@H]1COC2(CCC2)c2cc(C(F)(F)F)ccc21` [Example 15, (S)-4-amino-7-fluoro-N-methyl-N-(7'-(trifluoromethyl)spiro[cyclobutane-1,1'-isochroman]-4'-yl)imidazo[1,5-a]quinoxaline-8-carboxamide]: the IC50 in experiment [1] (Homo sapiens, Lu-99, 144 h) stood at 425 nM; in experiment [2] (setting [5]), 7.1 nM.
As for `CN(C(=O)c1cc2c(cc1F)nc(N)c1cncn12)C1COC2(CCOCC2)c2cc(C(F)(F)F)ccc21` (stereo not drawn) [Example 16, 4-Amino-7-fluoro-N-methyl-N-(7-(trifluoromethyl)-2',3',5',6'-tetrahydrospiro[isochroman-1,4'-pyran]-4-yl)imidazo[1,5-a]quinoxaline-8-carboxamide], the IC50 in experiment [1] (Homo sapiens, Lu-99, 144 h) was 1290 nM; in experiment [2] (setting [5]) it was 10.8 nM; in the experiment on HCT-116 wild-type cells (Homo sapiens, HCT-116, 192 h), 1610 nM; in experiment [3] (Homo sapiens, HCT-116, 192 h), 5.9 nM.
Regarding `Cn1cc(N(C(=O)c2ccc3nc(N)c4cncn4c3c2)C2COC3(CCC3)c3cc(C(F)(F)F)ccc32)cn1` (stereo not drawn) [Example 17, 4-Amino-N-(1-methyl-1H-pyrazol-4-yl)-N-(7'-(trifluoromethyl)spiro[cyclobutane-1,1'-isochroman]-4'-yl)imidazo[1,5-a]quinoxaline-8-carboxamide], the IC50 in experiment [1] (Homo sapiens, Lu-99, 144 h) is 104 nM; in experiment [2] (setting [5]) it was 4.5 nM; with HCT-116 wild-type cells (Homo sapiens, HCT-116, 192 h), 324 nM; in experiment [3] (Homo sapiens, HCT-116, 192 h), 5.17 nM.
Take `CN(C(=O)c1ccc2nc(N)c3cncn3c2c1)C1COC(C)(C)c2c1ccc1c2OCO1` (stereo not drawn) [Example 18]: the IC50 came to 756 nM in experiment [1] (Homo sapiens, Lu-99, 144 h) and 99.6 nM in experiment [2] (setting [5]).
Regarding `Cc1ncc2c(N)nc3cc(F)c(C(=O)N(C)C4COC5(CCOCC5)c5cc(C(F)(F)F)ccc54)cc3n12` (stereo not drawn) [Example 19, 4-Amino-7-fluoro-N,1-dimethyl-N-(7-(trifluoromethyl)-2',3',5',6'-tetrahydrospiro[isochroman-1,4'-pyran]-4-yl)imidazo[1,5-a]quinoxaline-8-carboxamide], the IC50 in experiment [1] (Homo sapiens, Lu-99, 144 h) came out at 1390 nM; in experiment [2] (setting [5]) it was 31.3 nM; in the experiment with HCT-116 wild-type cells (Homo sapiens, HCT-116, 192 h) it was 2710 nM; in experiment [3] (Homo sapiens, HCT-116, 192 h) it was 21.7 nM.
Consider `CN(C(=O)c1ccc2nc(N)c3cncn3c2c1)C1COC2(CCCOC2)c2cc(C(F)(F)F)ccc21` (stereo not drawn) [Example 24, 4-Amino-N-methyl-N-(7-(trifluoromethyl)-5',6'-dihydro-2'H,4'H-spiro[isochroman-1,3'-pyran]-4-yl)imidazo[1,5-a]quinoxaline-8-carboxamide], for which the IC50 is 1470 nM in experiment [1] (Homo sapiens, Lu-99, 144 h) and 9.54 nM in experiment [2] (setting [5]).
In the case of `CN(C(=O)c1cc2c(cc1F)nc(N)c1cncn12)C1COC2(CCCOC2)c2cc(C(F)(F)F)ccc21` (stereo not drawn) [Example 50, 4-Amino-7-fluoro-N-methyl-N-(7-(trifluoromethyl)-5',6'-dihydro-2'H,4'H-spiro[isochroman-1,3'-pyran]-4-yl)imidazo[1,5-a]quinoxaline-8-carboxamide], the IC50 in experiment [1] (Homo sapiens, Lu-99, 144 h) is 591 nM; in experiment [2] (setting [5]), 7.13 nM.
On to `CN(C(=O)c1ccc2nc(N)c3cncn3c2c1)C1COC(C)(C)c2cc(C(F)(F)F)ncc21` (stereo not drawn) [Example 99, 4-Amino-N-(1,1-dimethyl-7-(trifluoromethyl)-3,4-dihydro-1H-pyrano[4,3-c]pyridin-4-yl)-N-methylimidazo[1,5-a]quinoxaline-8-carboxamide], for which the IC50 came to 2970 nM in experiment [1] (Homo sapiens, Lu-99, 144 h) and 152 nM in experiment [2] (setting [5]).
